From US12480137B2, “Plants having increased tolerance to herbicides” (BASF SE, priority 2014, dated 2025)

Assays:
Assay type in all cases: in vivo, Arabidopsis thaliana
A. thaliana WT L. erecta = assay: Greenhouse phytotox, post-emergent treatment 6 weeks after sowing
Protocol: (§1) Additionally, M2 or M3 Arabidopsis plants are tested for improved tolerance to cellulose biosynthesis-inhibiting herbicides in greenhouse studies (e. g. with the following cellulose biosynthesis-inhibiting herbicides: 6-cyclopentyl-N4-(2,3,4,5,6-pentafluorophenyl)-1,3,5-triazine-2,4-diamine; 6-(1-fluoro-1-methyl-ethyl)-N4-(2,3,4,5,6-pentafluorophenyl)-1,3,5-triazine-2,4-diamine; N4-(4-chloro-3,5,6-trifluoro-2-pyridyl)-6-(1-fluoro-1-methyl-ethyl)-1,3,5-triazine-2,4-diamine; 6-(2,6-difluorophenyl)-N4-(2,3,5,6-tetrafluorophenyl)-1,3,5-triazine-2,4-diamine; N4-(4-bromo-2,3,5,6-tetrafluoro-phenyl)-6-(1-fluoro-1-methyl-ethyl)-1,3,5-triazine-2,4-diamine.

[1] = tested on: Cesa1_G1009D, fpx2-3 mutant line; assay: as above
Protocol: as §1

[2] = tested on: Cesa1_G1013R, fpx2-1 mutant line; assay: as above
Protocol: as §1

[3] = tested on: Cesa1_P1010L, fpx2-2 mutant line; assay: as above
Protocol: as §1

[4] = tested on: Cesa3_S1037F, fpx1-2 mutant line; assay: as above
Protocol: as §1

[5] = tested on: Cesa3_S1040L, fpx1-1 mutant line; assay: as above
Protocol: as §1

[6] = tested on: Cesa3_S983F, fpx1-3 mutant line; assay: as above
Protocol: as §1

[7] = tested on: transgenic Arabidopsis plants, construct AtCESA1 wt; assay: Growth inhibition of transgenic Arabidopsis in 48-well plates, tolerance factor from IC50; conditions: SEQ ID NO 1, growth inhibition seven to ten days after seeding
Description: (§2) For transformation of Arabidopsis thaliana, wildtype or mutated cellulose synthase sequences based on one of the following sequences SEQ ID NO: 72, 73, 74, 75, 76, or 77, are cloned with standard cloning techniques as described in Sambrook et al. (Molecular cloning (2001) Cold Spring Harbor Laboratory Press) in a binary vector containing resistance marker gene cassette (AHAS) and mutated cellulose synthase sequence (marked as GOI) in between ubiquitin promoter (PcUbi) and nopaline synthase terminator (NOS) sequence. Binary plasmids are introduced to Agrobacterium tumefaciens for plant transformation. Arabidopsis thaliana are transformed with wildtype or mutated cellulose synthase sequences by floral dip method as decribed by McElver and Singh (WO 2008/124495). Transgenic Arabidopsis plants are subjected to TaqMan analysis for analysis of the number of integration loci.
(§3) Transgenic Arabidopsis thaliana plants are assayed for improved tolerance to azine herbicides like e. g. 6-cyclopentyl-N4-(2,3,4,5,6-pentafluorophenyl)-1,3,5-triazine-2,4-diamine in 48-well plates. Therefore, T2 seeds are surface sterilized by stirring for 5 min in ethanol+water (70+30 by volume), rinsing one time with ethanol+water (70+30 by volume) and two times with sterile, deionized water. The seeds are resuspended in 0.1% agar dissolved in water (w/v) Four to five seeds per well are plated on solid nutrient medium consisting of half-strength murashige skoog nutrient solution, pH 5.8 (Murashige and Skoog (1962) Physiologia Plantarum 15: 473-497). Compounds are dissolved in dimethylsulfoxid (DMSO) and added to the medium prior solidification (final DMSO concentration 0.1%). Multi well plates are incubated in a growth chamber at 22° C., 75% relative humidity and 110 μmol Phot*m^−2*s^−1 with 14:10 h light:dark photoperiod. Growth inhibition is evaluated seven to ten days after seeding in comparison to wild type plants. Tolerance factors are calculated based on IC50 values of growth inhibition of transformed versus non-transformed Arabidopsis plants.

[8] = tested on: transgenic Arabidopsis plants, construct AtCESA1_G1013R; assay: as above; conditions: SEQ ID NO 1, substitution G1013R, growth inhibition seven to ten days after seeding
Description: as §2, §3

[9] = tested on: transgenic Arabidopsis plants, construct AtCESA3_S1037F; assay: as above; conditions: SEQ ID NO 3, substitution S1037F, growth inhibition seven to ten days after seeding
Description: as §2, §3

[10] = tested on: transgenic Arabidopsis plants, construct AtCESA3_S1040L; assay: as above; conditions: SEQ ID NO 3, substitution S1040L, growth inhibition seven to ten days after seeding
Description: as §2, §3

[11] = tested on: transgenic Arabidopsis plants, construct AtCESA3_wt; assay: as above; conditions: SEQ ID NO 3, growth inhibition seven to ten days after seeding
Description: as §2, §3

Question: Which “Phytotox value on a scale from 0-100 (100 is 100% damage)” value (“Phytotox value … (100 is 100% damage)” for short) (A. thaliana WT L. erecta; 7.88 g ai/ha) does the source give for `Nc1nc(Nc2c(F)c(F)c(F)c(F)c2F)nc(C2CCCC2)n1` [6-cyclopentyl-N4-(2,3,4,5,6-pentafluorophenyl)-1,3,5-triazine-2,4-diamine] here?
Answer: 68

Question: And the “Phytotox value … (100 is 100% damage)” value (A. thaliana WT L. erecta; 15.75 g ai/ha)?
Answer: 80

Question: And the “Phytotox value … (100 is 100% damage)” value (A. thaliana WT L. erecta; 31.5 g ai/ha)?
Answer: 78

Question: And the “Phytotox value … (100 is 100% damage)” value (A. thaliana WT L. erecta; 63 g ai/ha)?
Answer: 98

Question: What about the “Phytotox value … (100 is 100% damage)” value ([1]; 7.88 g ai/ha) of the same molecule?
Answer: 45

Question: What about the “Phytotox value … (100 is 100% damage)” value ([1]; 15.75 g ai/ha) of the same molecule?
Answer: 63

Question: And the “Phytotox value … (100 is 100% damage)” value ([1]; 31.5 g ai/ha)?
Answer: 73

Question: What about the “Phytotox value … (100 is 100% damage)” value ([1]; 63 g ai/ha) of the same molecule?
Answer: 75

Question: And the “Phytotox value … (100 is 100% damage)” value ([2]; 7.88 g ai/ha)?
Answer: 38

Question: And the “Phytotox value … (100 is 100% damage)” value ([2]; 15.75 g ai/ha)?
Answer: 55

Question: And the “Phytotox value … (100 is 100% damage)” value ([2]; 31.5 g ai/ha)?
Answer: 65

Question: And the “Phytotox value … (100 is 100% damage)” value ([2]; 63 g ai/ha)?
Answer: 80

Question: And the “Phytotox value … (100 is 100% damage)” value ([3]; 7.88 g ai/ha)?
Answer: 63

Question: And the “Phytotox value … (100 is 100% damage)” value ([3]; 15.75 g ai/ha)?
Answer: 70

Question: And the “Phytotox value … (100 is 100% damage)” value ([3]; 31.5 g ai/ha)?
Answer: 78

Question: And the “Phytotox value … (100 is 100% damage)” value ([3]; 63 g ai/ha)?
Answer: 93

Question: And the “Phytotox value … (100 is 100% damage)” value ([4]; 7.88 g ai/ha)?
Answer: 55

Question: And the “Phytotox value … (100 is 100% damage)” value ([4]; 15.75 g ai/ha)?
Answer: 58

Question: And the “Phytotox value … (100 is 100% damage)” value ([4]; 31.5 g ai/ha)?
Answer: 70

Question: And the “Phytotox value … (100 is 100% damage)” value ([4]; 63 g ai/ha)?
Answer: 78

Question: And the “Phytotox value … (100 is 100% damage)” value ([5]; 7.88 g ai/ha)?
Answer: 0

Question: What about the “Phytotox value … (100 is 100% damage)” value ([5]; 15.75 g ai/ha) of the same molecule?
Answer: 5

Question: And the “Phytotox value … (100 is 100% damage)” value ([5]; 31.5 g ai/ha)?
Answer: 35

Question: And the “Phytotox value … (100 is 100% damage)” value ([5]; 63 g ai/ha)?
Answer: 68

Question: And the “Phytotox value … (100 is 100% damage)” value ([6]; 7.88 g ai/ha)?
Answer: 25

Question: And the “Phytotox value … (100 is 100% damage)” value ([6]; 15.75 g ai/ha)?
Answer: 65

Question: What about the “Phytotox value … (100 is 100% damage)” value ([6]; 31.5 g ai/ha) of the same molecule?
Answer: 55

Question: And the “Phytotox value … (100 is 100% damage)” value ([6]; 63 g ai/ha)?
Answer: 73

Question: And the “Relative tolerance rate (non-transgenic = 1.0)” value [7]?
Answer: 1

Question: And the “Relative tolerance rate (non-transgenic = 1.0)” value [8]?
Answer: 3

Question: What about the “Relative tolerance rate (non-transgenic = 1.0)” value [9] of the same molecule?
Answer: 17

Question: What about the “Relative tolerance rate (non-transgenic = 1.0)” value [10] of the same molecule?
Answer: 1

Question: What about the “Relative tolerance rate (non-transgenic = 1.0)” value [11] of the same molecule?
Answer: 1
